{"source": "the Deep4Chem optical property database", "assay": "solvent given as SMILES", "note": "Several values for one entry are separate records, joined by “and”; a condition that tells them apart may be missing. Equal entries are not always repeated.", "data": [{"smiles": "COc1ccc(-c2c3nc(cc4ccc([nH]4)c(-c4ccc(OC)c(OCC(=O)O)c4)c4nc(cc5ccc2[nH]5)CC4)CC3)cc1OCC(=O)O", "values": [{"measurement": "emission maximum", "setting": "in CS(C)=O", "result": 738, "unit": "nm"}]}, {"smiles": "CN(C)c1ccc(/C=C/c2cc[n+](C)cc2)cc1", "values": [{"measurement": "emission maximum", "setting": "in C1CCOC1", "result": 590, "unit": "nm"}, {"measurement": "emission maximum", "setting": "in CC1COC(=O)O1", "result": 600, "unit": "nm"}, {"measurement": "emission maximum", "setting": "in CC#N", "result": "625 nm and 605 nm"}, {"measurement": "emission maximum", "setting": "in CC(C)=O", "result": 602, "unit": "nm"}, {"measurement": "emission maximum", "setting": "in CC(C)O", "result": 591, "unit": "nm"}, {"measurement": "emission maximum", "setting": "in CCO", "result": 594, "unit": "nm"}, {"measurement": "emission maximum", "setting": "in CCOC(C)=O", "result": 595, "unit": "nm"}, {"measurement": "emission maximum", "setting": "in CN(C)C=O", "result": 596, "unit": "nm"}, {"measurement": "emission maximum", "setting": "in CO", "result": 596, "unit": "nm"}, {"measurement": "emission maximum", "setting": "in CS(C)=O", "result": 610, "unit": "nm"}, {"measurement": "emission maximum", "setting": "in ClC(Cl)Cl", "result": 585, "unit": "nm"}, {"measurement": "emission maximum", "setting": "in ClCCl", "result": 608, "unit": "nm"}, {"measurement": "emission maximum", "setting": "in O", "result": "624 nm and 597 nm"}, {"measurement": "emission maximum", "setting": "in c1ccncc1", "result": 605, "unit": "nm"}]}, {"smiles": "CCC1=C(C)C2=C(C)c3c(C)c(CC)c(C)n3[B-](F)(F)[N+]2=C1C", "values": [{"measurement": "emission maximum", "setting": "in C1CCCCC1", "result": 537.2, "unit": "nm"}, {"measurement": "emission maximum", "setting": "in C1CCOC1", "result": 534, "unit": "nm"}, {"measurement": "emission maximum", "setting": "in C1COCCO1", "result": 533.2, "unit": "nm"}, {"measurement": "emission maximum", "setting": "in CC#N", "result": 530.4, "unit": "nm"}, {"measurement": "emission maximum", "setting": "in CC(C)=O", "result": 532, "unit": "nm"}, {"measurement": "emission maximum", "setting": "in CC(C)O", "result": 534, "unit": "nm"}, {"measurement": "emission maximum", "setting": "in CCC(C)C", "result": 534.4, "unit": "nm"}, {"measurement": "emission maximum", "setting": "in CCCCCC", "result": 533.6, "unit": "nm"}, {"measurement": "emission maximum", "setting": "in CCCCCCCC", "result": 535.2, "unit": "nm"}, {"measurement": "emission maximum", "setting": "in CCCCCCCCCCO", "result": 534.8, "unit": "nm"}, {"measurement": "emission maximum", "setting": "in CCCCCCCCO", "result": 534.4, "unit": "nm"}, {"measurement": "emission maximum", "setting": "in CCCCCCO", "result": 534.8, "unit": "nm"}, {"measurement": "emission maximum", "setting": "in CCCCO", "result": 534.4, "unit": "nm"}, {"measurement": "emission maximum", "setting": "in CCCO", "result": 534, "unit": "nm"}, {"measurement": "emission maximum", "setting": "in CCO", "result": 532.4, "unit": "nm"}, {"measurement": "emission maximum", "setting": "in CCOC(C)=O", "result": 531.6, "unit": "nm"}, {"measurement": "emission maximum", "setting": "in CCOCC", "result": 532.8, "unit": "nm"}, {"measurement": "emission maximum", "setting": "in CN1CCCC1=O", "result": 533.2, "unit": "nm"}, {"measurement": "emission maximum", "setting": "in CN(C)C=O", "result": 532.8, "unit": "nm"}, {"measurement": "emission maximum", "setting": "in CO", "result": 531.6, "unit": "nm"}, {"measurement": "emission maximum", "setting": "in Cc1ccccc1", "result": 536.4, "unit": "nm"}, {"measurement": "emission maximum", "setting": "in ClCCl", "result": 534, "unit": "nm"}, {"measurement": "emission maximum", "setting": "in OCC(F)(F)F", "result": 535.2, "unit": "nm"}, {"measurement": "emission maximum", "setting": "in OCCO", "result": 536.4, "unit": "nm"}, {"measurement": "emission maximum", "setting": "in OCCOc1ccccc1", "result": 536.8, "unit": "nm"}, {"measurement": "emission maximum", "setting": "in c1ccccc1", "result": 536.4, "unit": "nm"}]}, {"smiles": "COc1ccccc1C1=[N+]2C(=C(c3ccccc3)c3c4c(c(-c5ccccc5OC)n3[B-]2(F)F)C2CCC4CC2)C2=C1C1CCC2CC1", "values": [{"measurement": "emission maximum", "setting": "in ClCCl", "result": 583, "unit": "nm"}]}, {"smiles": "c1ccc2cc3c(cc2c1)oc1c2oc4cc5ccccc5cc4c2c2ccccc2c31", "values": [{"measurement": "emission maximum", "setting": "in C1CCOC1", "result": 399, "unit": "nm"}]}, {"smiles": "COc1ccc(/C=C/c2nc(/C=C/c3ccc(N(C)C)cc3)cc(/C=C/c3ccc(N(C)C)cc3)n2)cc1", "values": [{"measurement": "emission maximum", "setting": "in C1CCOC1", "result": 522, "unit": "nm"}, {"measurement": "emission maximum", "setting": "in CC#N", "result": 581, "unit": "nm"}, {"measurement": "emission maximum", "setting": "in CC(C)=O", "result": 559, "unit": "nm"}, {"measurement": "emission maximum", "setting": "in CCCCCCC", "result": 450, "unit": "nm"}, {"measurement": "emission maximum", "setting": "in CS(C)=O", "result": 598, "unit": "nm"}, {"measurement": "emission maximum", "setting": "in Cc1ccccc1", "result": 480, "unit": "nm"}, {"measurement": "emission maximum", "setting": "in ClCCl", "result": 533, "unit": "nm"}]}, {"smiles": "CCN1/C(=C\\c2c(-c3ccc(N(C)C)cc3)c(=O)c2=O)C=Cc2ccccc21", "values": [{"measurement": "emission maximum", "setting": "in C1CCCCC1", "result": 427, "unit": "nm"}, {"measurement": "emission maximum", "setting": "in Cc1ccccc1", "result": 434, "unit": "nm"}, {"measurement": "emission maximum", "setting": "in ClCCl", "result": 588, "unit": "nm"}]}, {"smiles": "Cc1ccc(N2C(c3ccccc3N(C)C)=NC(c3ccccc3)C2c2ccccc2)cc1", "note": "(stereo not drawn)", "values": [{"measurement": "emission maximum", "setting": "in Cc1ccccc1", "result": 422, "unit": "nm"}]}, {"smiles": "[O-][n+]1c(/C=C/c2cccs2)nc(N2CCOCC2)c2c1CCCC2", "values": [{"measurement": "emission maximum", "setting": "in ClCCl", "result": 534, "unit": "nm"}]}, {"smiles": "c1ccc(-c2oc(-c3ccccc3)c3ccccc23)cc1", "values": [{"measurement": "emission maximum", "setting": "in C1CCCCC1", "result": 448, "unit": "nm"}, {"measurement": "emission maximum", "setting": "in C1CCOC1", "result": 451, "unit": "nm"}, {"measurement": "emission maximum", "setting": "in CC#N", "result": 452, "unit": "nm"}, {"measurement": "emission maximum", "setting": "in CCO", "result": 451, "unit": "nm"}, {"measurement": "emission maximum", "setting": "in CN(C)C=O", "result": 458, "unit": "nm"}, {"measurement": "emission maximum", "setting": "in CS(C)=O", "result": 460, "unit": "nm"}, {"measurement": "emission maximum", "setting": "in Cc1ccccc1", "result": 454, "unit": "nm"}]}, {"smiles": "COc1ccc2[nH]cc(/C=C/C3=[NH+]c4cccc5cccc3c45)c2c1", "values": [{"measurement": "emission maximum", "setting": "in CO", "result": 583, "unit": "nm"}]}]}
